In ChEMBL document CHEMBL3585290, “Synthesis and biological evaluation of novel bivalent -carbolines as potential antitumor agents” (Medchemcomm, 2014):
pIC50: −log10 of the molar value.

Tests used:
[1] = system: SK-OV-3; test: Cytotoxicity against human SKOV3 cells after 48 hrs by MTT assay; assay type: functional, cell-based; settings: SK-OV-3, 48 h
[2] = Cytotoxicity against human BGC823 cells after 48 hrs by MTT assay; assay type: functional, cell-based; settings: BGC-823, 48 h
[3] = system: CT26; test: Antitumor activity against mouse CT26 cells implanted in mouse assessed as tumor growth inhibition at 76.9 umol/kg, ip qd administered for 7 days starting 24 hrs post tumor implantation measured after day 21 relative to control; assay type: functional; settings: read-out: TGI
[4] = system: Lewis lung carcinoma cell line; test: Antitumor activity against mouse LLC cells implanted in mouse assessed as tumor growth inhibition at 76.9 umol/kg, ip qd administered for 7 days starting 24 hrs post tumor implantation measured after day 21 relative to control; assay type: functional; settings: read-out: TGI
[5] = Acute toxicity in ip dosed C57BL/6 mouse measured for 14 days; assay type: organism-based; settings: in vivo
[6] = system: 769-P; test: Cytotoxicity against human 769-P cells after 48 hrs by MTT assay; assay type: functional, cell-based
[7] = system: A-375; test: Cytotoxicity against human A375 cells after 48 hrs by MTT assay; assay type: functional, cell-based; settings: A-375, 48 h
[8] = system: KB; test: Cytotoxicity against human KB cells after 48 hrs by MTT assay; assay type: functional, cell-based
[9] = system: Lewis lung carcinoma cell line; test: Antitumor activity against mouse LLC cells implanted in mouse assessed as tumor growth inhibition at 32.3 umol/kg, ip qd administered for 7 days starting 24 hrs post tumor implantation measured after day 21 relative to control; assay type: functional; settings: read-out: TGI
[10] = system: CT26; test: Antitumor activity against mouse CT26 cells implanted in mouse assessed as tumor growth inhibition at 32.3 umol/kg, ip qd administered for 7 days starting 24 hrs post tumor implantation measured after day 21 relative to control; assay type: functional; settings: read-out: TGI
[11] = system: Lewis lung carcinoma cell line; test: Antitumor activity against mouse LLC cells implanted in mouse assessed as tumor growth inhibition at 26.9 umol/kg, ip qd administered for 7 days starting 24 hrs post tumor implantation measured after day 21 relative to control; assay type: functional; settings: read-out: TGI
[12] = system: CT26; test: Antitumor activity against mouse CT26 cells implanted in mouse assessed as tumor growth inhibition at 26.9 umol/kg, ip qd administered for 7 days starting 24 hrs post tumor implantation measured after day 21 relative to control; assay type: functional; settings: read-out: TGI
[13] = system: CT26; test: Antitumor activity against mouse CT26 cells implanted in mouse assessed as tumor growth inhibition at 11.1 umol/kg, ip qd administered for 7 days starting 24 hrs post tumor implantation measured after day 21 relative to control; assay type: functional; settings: read-out: TGI
[14] = system: Lewis lung carcinoma cell line; test: Antitumor activity against mouse LLC cells implanted in mouse assessed as tumor growth inhibition at 11.1 umol/kg, ip qd administered for 7 days starting 24 hrs post tumor implantation measured after day 21 relative to control; assay type: functional; settings: read-out: TGI
[15] = system: Lewis lung carcinoma cell line; test: Antitumor activity against mouse LLC cells implanted in mouse assessed as tumor growth inhibition at 223.8 umol/kg, ip qd administered for 7 days starting 24 hrs post tumor implantation measured after day 21 relative to control; assay type: functional; settings: read-out: TGI
[16] = system: CT26; test: Antitumor activity against mouse CT26 cells implanted in mouse assessed as tumor growth inhibition at 223.8 umol/kg, ip qd administered for 7 days starting 24 hrs post tumor implantation measured after day 21 relative to control; assay type: functional; settings: read-out: TGI

Row | SMILES | pIC50 [1] | pIC50 [2] | pIC50 [6] | pIC50 [7] | pIC50 [8] | also measured
1 | Cc1nc(C(=O)OCCCOC(=O)c2cc3c4ccccc4n(C)c3c(C)n2)cc2c3ccccc3n(C)c12 | 4.68 | 4.71 | 4.79 | 4.78 | 4.74 | inhibition in vivo at 76.9 µmol/kg [3]: 23.6%; inhibition in vivo at 76.9 µmol/kg [4]: 28.1%; LD50 at 336 h [5]: 385 µmol/kg
2 | Cc1nc(C(=O)OCCCCCCOC(=O)c2cc3c4ccccc4n(C)c3c(C)n2)cc2c3ccccc3n(C)c12 | < 3.70 | < 3.70 | 4.55 | 4.08 | 3.78 | –
3 | Cc1nc(C(=O)OCCCCCCCCCCOC(=O)c2cc3c4ccccc4n(C)c3c(C)n2)cc2c3ccccc3n(C)c12 | < 3.70 | < 3.70 | 4.37 | 3.90 | 3.70 | –
4 | CCn1c2ccccc2c2cc(C(=O)OCCCCCCOC(=O)c3cc4c5ccccc5n(CC)c4c(C)n3)nc(C)c21 | < 3.70 | < 3.70 | 4.37 | 4.48 | 4.78 | –
5 | CCn1c2ccccc2c2cc(C(=O)OCCCCCCCCOC(=O)c3cc4c5ccccc5n(CC)c4c(C)n3)nc(C)c21 | 4.06 | < 3.70 | 4.66 | 4.06 | < 3.70 | –
6 | CCn1c2ccccc2c2cc(C(=O)OCCCCCCCCCOC(=O)c3cc4c5ccccc5n(CC)c4c(C)n3)nc(C)c21 | < 3.70 | < 3.70 | 4.99 | < 3.70 | 4.24 | –
7 | CCCCn1c2ccccc2c2cc(C(=O)OCCCCOC(=O)c3cc4c5ccccc5n(CCCC)c4cn3)ncc21 | 3.91 | 3.94 | 4.37 | < 3.70 | 4.05 | –
8 | CCCCn1c2ccccc2c2cc(C(=O)OCCCCCOC(=O)c3cc4c5ccccc5n(CCCC)c4cn3)ncc21 | < 3.70 | < 3.70 | 4.48 | < 3.70 | 4.27 | –
9 | CCCCn1c2ccccc2c2cc(C(=O)OCCCCCCOC(=O)c3cc4c5ccccc5n(CCCC)c4cn3)ncc21 | < 3.70 | 4.36 | 3.95 | 4.74 | 4.81 | inhibition in vivo at 32.3 µmol/kg [9]: 64.2%; inhibition in vivo at 32.3 µmol/kg [10]: 33.8%; LD50 at 336 h [5]: 162 µmol/kg
10 | CCCCn1c2ccccc2c2cc(C(=O)OCCCCCCCCOC(=O)c3cc4c5ccccc5n(CCCC)c4cn3)ncc21 | 3.91 | 4.16 | 3.68 | 3.84 | 4.70 | –
11 | CCCCn1c2ccccc2c2cc(C(=O)OCCCCCCCCCOC(=O)c3cc4c5ccccc5n(CCCC)c4cn3)ncc21 | < 3.70 | < 3.70 | 3.94 | 4.05 | 4.58 | –
12 | CCCCn1c2ccccc2c2cc(C(=O)OCCCCCCCCCCOC(=O)c3cc4c5ccccc5n(CCCC)c4cn3)ncc21 | < 3.70 | 3.77 | 4.05 | < 3.70 | 4.34 | –
13 | CCCCn1c2ccccc2c2cc(C(=O)OCCCCCCOC(=O)c3cc4c5ccccc5n(CCCC)c4c(C)n3)nc(C)c21 | < 3.70 | < 3.70 | 4.22 | < 3.70 | 4.26 | –
14 | CCCCn1c2ccccc2c2cc(C(=O)OCCCCCCCOC(=O)c3cc4c5ccccc5n(CCCC)c4c(C)n3)nc(C)c21 | 4.15 | < 3.70 | 4.02 | < 3.70 | < 3.70 | –
15 | CCCCn1c2ccccc2c2cc(C(=O)OCCCCCCCCCCOC(=O)c3cc4c5ccccc5n(CCCC)c4c(C)n3)nc(C)c21 | < 3.70 | < 3.70 | 3.94 | 4.38 | < 3.70 | –
16 | O=C(OCCCCOC(=O)c1cc2c3ccccc3n(Cc3ccccc3)c2cn1)c1cc2c3ccccc3n(Cc3ccccc3)c2cn1 | < 3.70 | 4.36 | 4.34 | 5.10 | < 3.70 | –

Row | SMILES | pIC50 [1] | pIC50 [2] | pIC50 [6] | pIC50 [7] | pIC50 [8] | also measured
17 | O=C(OCCCCCCOC(=O)c1cc2c3ccccc3n(Cc3ccccc3)c2cn1)c1cc2c3ccccc3n(Cc3ccccc3)c2cn1 | 4.56 | 3.79 | 4.33 | < 3.70 | 4.80 | –
18 | O=C(OCCCCCCCCOC(=O)c1cc2c3ccccc3n(Cc3ccccc3)c2cn1)c1cc2c3ccccc3n(Cc3ccccc3)c2cn1 | < 3.70 | < 3.70 | 4.16 | < 3.70 | 3.79 | –
19 | Cc1nc(C(=O)OCCCCCOC(=O)c2cc3c4ccccc4n(Cc4ccccc4)c3c(C)n2)cc2c3ccccc3n(Cc3ccccc3)c12 | < 3.70 | < 3.70 | 4.14 | 3.90 | 4.37 | –
20 | Cc1nc(C(=O)OCCCCCCOC(=O)c2cc3c4ccccc4n(Cc4ccccc4)c3c(C)n2)cc2c3ccccc3n(Cc3ccccc3)c12 | < 3.70 | < 3.70 | 4.19 | < 3.70 | 3.95 | –
21 | O=C(OCCCCCCOC(=O)c1cc2c3ccccc3n(Cc3cccc(Cl)c3)c2cn1)c1cc2c3ccccc3n(Cc3cccc(Cl)c3)c2cn1 | 4.72 | < 3.70 | 4.66 | < 3.70 | 4.33 | –
22 | O=C(OCCCCCCCCCOC(=O)c1cc2c3ccccc3n(Cc3cccc(Cl)c3)c2cn1)c1cc2c3ccccc3n(Cc3cccc(Cl)c3)c2cn1 | < 3.70 | < 3.70 | 3.84 | < 3.70 | 4.15 | –
23 | O=C(OCCCOC(=O)c1cc2c3ccccc3n(CCCc3ccccc3)c2cn1)c1cc2c3ccccc3n(CCCc3ccccc3)c2cn1 | < 3.70 | < 3.70 | 4.02 | < 3.70 | 4.14 | –
24 | O=C(OCCCCCCOC(=O)c1cc2c3ccccc3n(CCCc3ccccc3)c2cn1)c1cc2c3ccccc3n(CCCc3ccccc3)c2cn1 | 5.07 | < 3.70 | 4.53 | 4.84 | 4.25 | inhibition in vivo at 26.9 µmol/kg [11]: 53.5%; LD50 at 336 h [5]: 135 µmol/kg; inhibition in vivo at 26.9 µmol/kg [12]: 28.3%
25 | O=C(OCCCCCCCOC(=O)c1cc2c3ccccc3n(CCCc3ccccc3)c2cn1)c1cc2c3ccccc3n(CCCc3ccccc3)c2cn1 | < 3.70 | < 3.70 | 4.36 | 3.84 | 4.10 | –
26 | Cc1nc(C(=O)OCCCCCCOC(=O)c2cc3c4ccccc4n(CCCc4ccccc4)c3c(C)n2)cc2c3ccccc3n(CCCc3ccccc3)c12 | 4.13 | < 3.70 | 4.66 | < 3.70 | < 3.70 | –
27 | Cc1nc(C(=O)OCCCCCCCCCOC(=O)c2cc3c4ccccc4n(CCCc4ccccc4)c3c(C)n2)cc2c3ccccc3n(CCCc3ccccc3)c12 | < 3.70 | < 3.70 | 3.97 | < 3.70 | 4.29 | –
28 | CCn1c2ccccc2c2cc(C(=O)OCCCCCCOC(=O)c3cc4c5ccccc5n(CC)c4c(-c4ccc(OC)cc4)n3)nc(-c3ccc(OC)cc3)c21 | < 3.70 | < 3.70 | 4.18 | < 3.70 | 4.05 | –
29 | COc1ccc(-c2nc(C(=O)OCCCCCCOC(=O)c3cc4c5ccccc5n(CCCc5ccccc5)c4c(-c4ccc(OC)cc4)n3)cc3c4ccccc4n(CCCc4ccccc4)c23)cc1 | < 3.70 | 3.85 | 4.02 | 3.88 | 3.66 | inhibition in vivo at 11.1 µmol/kg [13]: 15.1%; LD50 at 336 h [5]: 55.8 µmol/kg; inhibition in vivo at 11.1 µmol/kg [14]: 24.6%
30 | CCn1c2ccccc2c2cc(C(=O)OCCCCCCOC(=O)c3cc4c5ccccc5n(CC)c4c(-c4cc(OC)c(OC)c(OC)c4)n3)nc(-c3cc(OC)c(OC)c(OC)c3)c21 | 4.32 | 3.80 | 4.96 | 4.39 | 4.68 | –
31 | COc1cc(-c2nc(C(=O)OCCCCCCOC(=O)c3cc4c5ccccc5n(CCCc5ccccc5)c4c(-c4cc(OC)c(OC)c(OC)c4)n3)cc3c4ccccc4n(CCCc4ccccc4)c23)cc(OC)c1OC | < 3.70 | 3.77 | 3.93 | 3.87 | < 3.70 | –
32 | CCCCn1c2ccccc2c2cc(C(=O)O)ncc21 | < 3.70 | 3.90 | 4.37 | 4.10 | 4.17 | inhibition in vivo at 223.8 µmol/kg [15]: 45.4%; inhibition in vivo at 223.8 µmol/kg [16]: 18.7%; LD50 at 336 h [5]: 1120 µmol/kg
